Series [1] is described as follows: Postnarcotic period following awakening and adverse effects. The series is classed as in vivo. Particulars: postnarcotic period following awakening.
The test system of a further series is rats. The series is described as follows: Hypnotic effect in rats (method of Janssen et al.). The series is classed as in vivo. The conditions noted are these: for ED50: Rattus norvegicus, iv, read-out: HD50 (the source's name); for Mean duration of sleep: i.v., in the case of dose HD50. Here is the method: (§1) The hypnotic activity is measured by the method of Janssen et al. (J. Med. Chem. 8, 220/1965/). Ketalar/2-(2-chlorophenyl)-2-methyl-amino-cyclohexanone/ and Hexobarbital (5-methyl-5-hexenyl-barbituric acid) were applied as reference compounds.

Series [2] relates to mice. The series is described as follows: Hypnotic effect in mice (method of Janssen et al.). The format is in vivo. Particulars: for minimal effective dose / ED50: Mus musculus, iv; for minimal effective dose: 0.05 h, read-out: Hmin (minimal hypnotic dose inducing sleep in all animals for a period exceeding 3 minutes); for minimal effective dose / Mean duration of sleep: i.v.; for ED50: read-out: HD50 (dose inducing sleep in 50 percent of the animals). As to the method: as §1

Series [3] in a line: Acute toxicity (LD50) in mice. Particulars: mouse, in vivo, iv.
In series [4] the test system is mice. The series is described as follows: Acute toxicity (LD50) in mice. Particulars: mice, Tables 1 and 2.
A further series has as its system rabbits. As to the kind of experiment: Hypnotic effect in rabbits (method of Janssen et al.). Particulars: for minimal effective dose: Oryctolagus cuniculus, iv, read-out: Hmin; for Mean duration of sleep: i.v., in the case of dose Hmin. The format is in vivo. Here is the method:
as §1

Series [5] can be described thus: Acute toxicity (LD50, lethality) in rabbits. The conditions noted are these: rabbit, in vivo; for LD50: iv, LD50, rabbits.
Series [6] in a line: Acute toxicity (LD50) in rats. The conditions noted are these: rat, in vivo, iv.

Structures are written as SMILES. Entries after “also recorded” stand apart in the source; their conditions may differ. Bounds are passed on as bounds.

On to `Cc1cc2n(n1)C1(CCCCC1)N(C)N(C)C2=O` [Example 5, Spiro[cyclohexane-1,7'-/6,7-dihydro-2,5,6-trimethylpyrazolo[1,5-d][1,2,4]triazin-4(5H)-one/]], for which the “adverse effects of the postnarcotic period” value in series [1] was “devoid of any adverse effects”. For the same compound, the ED50 in the series with rats stood at 16 mg/kg; in the series on mice [2] it was 17.5 mg/kg. In addition, in the series on rats (Table 3), the “therapeutic index compared with reference substances” value is given as “more advantageous in both instances”. In addition, the “Mean duration of sleep” value in the series on rats came to 1.5 min; in the series with mice [2] (in the case of dose HD50), 2.8 min; in the series on mice [2] (in the case of dose Hmin), 6.75 min; with rabbits it was 6 min. Further, the minimal effective dose in the series on mice [2] and in the series with rabbits was 25 mg/kg throughout. Moreover, in the series with mice [2] (Tables 1 and 2, listed as compound of the invention), the “hypnotic effect compared with Hexobarbital and Ketalar” value was “superior to that of Hexobarbital; also recorded: in the same range as that of Ketalar”. Also, the LD50 is 192 mg/kg in series [3], about 325 mg/kg in series [5] and 275 mg/kg in series [6]. The “toxicity compared with reference substances” value in the series on mice [4] was “substantially lower than that of any of the above reference substances”.

In the case of `CNC1(c2ccccc2Cl)CCCCC1=O` (stereo not drawn) [Ketalar, 2-(2-chlorophenyl)-2-methyl-amino-cyclohexanone], the ED50 with rats was 8 mg/kg; with mice [2] it was 14.5 mg/kg. Besides, the “Mean duration of sleep” value turned out to be 1.9 min in the series with rats, 1.7 min with mice [2] (in the case of dose HD50), 5.0 min with mice [2] (in the case of dose Hmin) and 14 min with rabbits. Moreover, the minimal effective dose in the series on mice [2] and with rabbits was 25 mg/kg each time. Further, the results for the LD50 in series [3], in series [5] and in series [6] were 62 mg/kg, under 50 mg/kg and 39.4 mg/kg, respectively. This compound had a mortality in series [5] (50 mg/kg) of 80%.

As to `CN1C(=O)NC(=O)C(C)(C2=CCCCC2)C1=O` (stereo not drawn) [Hexobarbital, 5-methyl-5-hexenyl-barbituric acid], the values for the ED50 in the series on rats and with mice [2] were 17.5 mg/kg and 25 mg/kg, respectively. For the same compound, the “Mean duration of sleep” value was determined as 4.45 min in the series on rats, 2.6 min in the series on mice [2] (at a dose of 40 mg/kg), 4.1 min with mice [2] (in the case of dose HD50) and 7.2 min in the series on mice [2] (in the case of dose Hmin). For the same compound, in the series on mice [2], the minimal effective dose is 45 mg/kg. The LD50 was found to be 118 mg/kg in series [3] and 125 mg/kg in series [6].

For orientation: LD50 means the dose at which mortality reaches 50%. High values mean lower toxicity, low ones greater toxicity. Broadly, the mortality is the percentage killed. A lower mortality goes with a weak lethal effect.

(Values after patent US4469692A, “Spiro derivatives of the pyrazolo [1,5-d] [1,2,4] triazine ring system and a process for the preparation thereof” (Alkaloida Vegyeszeti Gyar, priority 1981, dated 1984).)
